The record followed here is PubChem BioAssay (NCI).

Each structure is given as a SMILES string.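 A five-concentration, 48-hour dose response in 96-well plates underlies each endpoint, interpolated linearly between surrounding concentrations. GI50 marks 50% less growth. TGI is the concentration that stops growth completely.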

Among the test systems are EKVX NSCLC; HT29 colon; NCI-H522 lung; NCI/ADR-RES ovarian; OVCAR-4 ovarian; SK-MEL-5 melanoma; TK-10 renal; UACC-257 melanoma; UACC-62 melanoma; K-562 leukemia.
Holding throughout (assay): NCI anticancer screen, dose series, 48 h

Turning to `Oc1cc(O)c2c(c1)OC(c1ccc(O)c(O)c1)C(O)C2c1c(O)cc(O)c2c1OC(c1ccc(O)c(O)c1)C(O)C2` (configuration not stated), the TGI in the experiment with EKVX NSCLC, in the experiment with HT29 colon, in the experiment on NCI-H522 lung, with NCI/ADR-RES ovarian, in the experiment on OVCAR-4 ovarian and with SK-MEL-5 melanoma was more than 100 µM each time. Besides, the TGI in the experiment with TK-10 renal, in the experiment with UACC-257 melanoma and with UACC-62 melanoma was more than 100 µM throughout.

As for `COc1cc(NCCC2CCCCN2)c2ncccc2c1OC` (configuration not stated), the GI50 in the experiment on EKVX NSCLC was 15.6 µM; in the experiment with HT29 colon, 13 µM; in the experiment on NCI-H522 lung, 2.41 µM; in the experiment with NCI/ADR-RES ovarian it was 22.8 µM; in the experiment with OVCAR-4 ovarian it was 1.5 µM; in the experiment on SK-MEL-5 melanoma it was 4.28 µM. Moreover, the GI50 in the experiment on TK-10 renal is 22.1 µM; in the experiment on UACC-257 melanoma, 2.79 µM; in the experiment on UACC-62 melanoma it was 2.24 µM. Besides, the TGI in the experiment on EKVX NSCLC came to 48.6 µM; with HT29 colon it was 33.6 µM; with NCI-H522 lung it was 9.05 µM; in the experiment with NCI/ADR-RES ovarian it was 70.5 µM; with OVCAR-4 ovarian, 2.86 µM; with SK-MEL-5 melanoma, 14.9 µM. In addition, the values for the TGI in the experiment on TK-10 renal, in the experiment with UACC-257 melanoma and in the experiment with UACC-62 melanoma were 39.7 µM, 9.36 µM and 6.19 µM, respectively.

`CCc1ccccc1NC(=O)C(=O)C(C#N)c1c(Cl)cccc1Cl` (configuration not stated): the TGI in the experiment with EKVX NSCLC, in the experiment with HT29 colon, in the experiment on K-562 leukemia, with NCI-H522 lung, in the experiment on TK-10 renal and in the experiment with UACC-257 melanoma was more than 100 µM in each case. Besides, the TGI with UACC-62 melanoma was more than 100 µM.

In the case of `O=C(O)CCSC(=O)Nc1ccccc1`, the TGI in the experiment with EKVX NSCLC, with HT29 colon, in the experiment on K-562 leukemia, in the experiment with OVCAR-4 ovarian, with TK-10 renal and in the experiment with UACC-257 melanoma was more than 100 µM each time. In the experiment on UACC-62 melanoma, this molecule yielded a TGI of more than 100 µM.

In the case of `O=C1CCc2ccc(O)c(c2)Oc2ccc(cc2)[C@@H]2O[C@@H]2CO1`, the TGI in the experiment on EKVX NSCLC is more than 100 µM; in the experiment with HT29 colon it was more than 100 µM; in the experiment with K-562 leukemia, more than 100 µM; with OVCAR-4 ovarian it was more than 100 µM; with SK-MEL-5 melanoma, 58.2 µM; in the experiment with TK-10 renal, more than 100 µM. Also, the TGI in the experiment with UACC-257 melanoma and with UACC-62 melanoma was more than 100 µM in each case.

With `Cc1ccc(NC(=O)CCC(=O)C2Cc3ccccc3C2=O)cc1C` (configuration not stated), the TGI with EKVX NSCLC, in the experiment on HT29 colon, in the experiment with K-562 leukemia, in the experiment with NCI-H522 lung, with OVCAR-4 ovarian and in the experiment on SK-MEL-5 melanoma was more than 100 µM in each case. The TGI in the experiment on TK-10 renal, with UACC-257 melanoma and in the experiment on UACC-62 melanoma was more than 100 µM each time.

As for `C=CCC1C(=O)CC2(C)C(CC=C)C(=O)CC12C` (configuration not stated), the TGI in the experiment with EKVX NSCLC, in the experiment with HT29 colon, with K-562 leukemia, in the experiment on NCI-H522 lung, in the experiment on OVCAR-4 ovarian and with SK-MEL-5 melanoma was more than 100 µM in each case. Moreover, the TGI in the experiment with TK-10 renal, in the experiment with UACC-257 melanoma and with UACC-62 melanoma was more than 100 µM each time.

For `O=C(Nc1ccc(Cl)cc1)N1CCN(c2ccc3nncn3n2)CC1`, the GI50 was 60.7 µM in the experiment on HT29 colon; 22 µM in the experiment with K-562 leukemia; more than 100 µM in the experiment with NCI/ADR-RES ovarian; 51.6 µM with OVCAR-4 ovarian; 37.3 µM with SK-MEL-5 melanoma; 43 µM in the experiment with TK-10 renal. The GI50 in the experiment on UACC-62 melanoma was 21.7 µM. The TGI in the experiment on HT29 colon, in the experiment on K-562 leukemia, with NCI/ADR-RES ovarian, in the experiment with OVCAR-4 ovarian, in the experiment on SK-MEL-5 melanoma and with TK-10 renal was more than 100 µM in each case. In the experiment with UACC-62 melanoma, this molecule displayed a TGI of more than 100 µM.

Consider `O=C(OCc1ccccc1)n1cccc1`, for which the TGI with EKVX NSCLC, in the experiment on HT29 colon, in the experiment with K-562 leukemia, in the experiment with NCI-H522 lung, with OVCAR-4 ovarian and in the experiment on SK-MEL-5 melanoma was more than 100 µM throughout. The TGI in the experiment with TK-10 renal, in the experiment with UACC-257 melanoma and with UACC-62 melanoma was more than 100 µM throughout.

For the molecule `N#CC1=C(c2ccccc2)OC2(N)OC(c3ccccc3)=C(C#N)C12C#N` (configuration not stated), the TGI in the experiment on EKVX NSCLC, in the experiment on HT29 colon, with K-562 leukemia, with OVCAR-4 ovarian, in the experiment on SK-MEL-5 melanoma and in the experiment on TK-10 renal was more than 100 µM each time. For the same molecule, the TGI in the experiment on UACC-257 melanoma and in the experiment with UACC-62 melanoma was more than 100 µM each time.

Take `CCN(CC)CCCC(C)Nc1ccnc(/C=C/c2ccc(Cl)cc2)c1` (configuration not stated): the TGI stood at 15.6 µM in the experiment with EKVX NSCLC; 6.44 µM with HT29 colon; 3.81 µM in the experiment on NCI-H522 lung; 15.3 µM in the experiment with NCI/ADR-RES ovarian; 6.17 µM in the experiment with SK-MEL-5 melanoma; 4.8 µM in the experiment with TK-10 renal. Moreover, the TGI was 3.59 µM in the experiment on UACC-257 melanoma and 3.69 µM in the experiment on UACC-62 melanoma.

For `CC(=O)[CH-]C(=O)c1ccccc1.CC(=O)[CH-]C(=O)c1ccccc1.CC(=O)[CH-]C(=O)c1ccccc1.[Br-].[Zr+4]`, the GI50 with EKVX NSCLC is 57.5 µM; in the experiment on HT29 colon, 48.3 µM; with K-562 leukemia, more than 100 µM; in the experiment with NCI-H522 lung it was 93.2 µM; in the experiment on OVCAR-4 ovarian it was 82.1 µM; in the experiment on SK-MEL-5 melanoma, more than 100 µM. Besides, the GI50 in the experiment on TK-10 renal was more than 100 µM; with UACC-257 melanoma it was 48.2 µM; with UACC-62 melanoma, more than 100 µM. For the same molecule, the TGI in the experiment with EKVX NSCLC, with HT29 colon, in the experiment on K-562 leukemia, in the experiment with NCI-H522 lung, with OVCAR-4 ovarian and in the experiment on SK-MEL-5 melanoma was more than 100 µM each time. For the same molecule, the TGI with TK-10 renal, in the experiment on UACC-257 melanoma and in the experiment on UACC-62 melanoma was more than 100 µM each time.

Turning to `FC(F)(F)c1nc(Br)[nH]c1C(F)(F)F`, the TGI in the experiment with EKVX NSCLC, with HT29 colon, with K-562 leukemia, in the experiment with OVCAR-4 ovarian, in the experiment on SK-MEL-5 melanoma and in the experiment with TK-10 renal was more than 100 µM each time. For the same molecule, the TGI with UACC-257 melanoma and with UACC-62 melanoma was more than 100 µM each time.

As to `CCOC(=O)CCn1cnc(N)n1`, the TGI in the experiment on EKVX NSCLC, in the experiment on HT29 colon, with K-562 leukemia, with NCI-H522 lung, in the experiment on OVCAR-4 ovarian and in the experiment with SK-MEL-5 melanoma was more than 100 µM each time. Further, the TGI with TK-10 renal, in the experiment on UACC-257 melanoma and in the experiment on UACC-62 melanoma was more than 100 µM each time.

Take `CNC(=O)NCCN1N=C(C)/C(=C\c2ccccc2)CC1=O`: the TGI in the experiment on HT29 colon, with K-562 leukemia, in the experiment with NCI-H522 lung, with OVCAR-4 ovarian, in the experiment with SK-MEL-5 melanoma and in the experiment with TK-10 renal was more than 100 µM throughout. In addition, the TGI with UACC-257 melanoma and with UACC-62 melanoma was more than 100 µM each time.

With `CSc1cc(C(C)(C)C)ccc1C(O)c1ccc(C(C)(C)C)cc1SC`, the TGI with EKVX NSCLC amounted to 21.2 µM; with HT29 colon, 19.6 µM; with K-562 leukemia, 30.5 µM; with NCI-H522 lung it was 21.9 µM; with OVCAR-4 ovarian, 22.9 µM; in the experiment with SK-MEL-5 melanoma it was 27.5 µM. The TGI was determined as 30.6 µM in the experiment with TK-10 renal, 25.5 µM in the experiment on UACC-257 melanoma and 33.9 µM with UACC-62 melanoma.

For the molecule `CC(C)(C)OC1=C(OC(C)(C)C)C(O)(c2ccc(Cl)cc2)C1=O` (configuration not stated), the TGI in the experiment with EKVX NSCLC, in the experiment on HT29 colon, with K-562 leukemia, in the experiment with OVCAR-4 ovarian, in the experiment with SK-MEL-5 melanoma and in the experiment on TK-10 renal was more than 100 µM each time. In the experiment with UACC-62 melanoma, this molecule gave a TGI of more than 100 µM.

Consider `N#CC(C#N)=C1CCC2C(=C(C#N)C#N)CCC12` (configuration not stated), for which the TGI in the experiment with EKVX NSCLC, in the experiment with HT29 colon, in the experiment on K-562 leukemia, in the experiment on NCI-H522 lung, in the experiment with OVCAR-4 ovarian and in the experiment with SK-MEL-5 melanoma was more than 100 µM in each case. Moreover, the TGI in the experiment on TK-10 renal, in the experiment with UACC-257 melanoma and with UACC-62 melanoma was more than 100 µM in each case.

On to `CCOC(=O)c1ccc(NC(=O)c2cccc(NC3=C(Cl)C(=O)N(Cc4ccccc4)C3=O)c2)cc1`, for which the GI50 is more than 100 µM with EKVX NSCLC; more than 100 µM in the experiment with HT29 colon; 33.3 µM in the experiment with K-562 leukemia; 62.9 µM with NCI-H522 lung; more than 100 µM in the experiment with OVCAR-4 ovarian; more than 100 µM in the experiment with SK-MEL-5 melanoma. For the same molecule, the GI50 in the experiment on TK-10 renal, in the experiment with UACC-257 melanoma and in the experiment with UACC-62 melanoma was more than 100 µM in each case. Also, the TGI in the experiment with EKVX NSCLC, in the experiment with HT29 colon, in the experiment on K-562 leukemia, in the experiment on NCI-H522 lung, in the experiment with OVCAR-4 ovarian and with SK-MEL-5 melanoma was more than 100 µM throughout. For the same molecule, the TGI with TK-10 renal, in the experiment on UACC-257 melanoma and in the experiment with UACC-62 melanoma was more than 100 µM each time.
